{"source": "patent US8653271B2", "about": "(priority 2006, dated 2014)", "key": {"physchem": {"assay": "physchem", "type": "physicochemical", "details": "for Light mineral oil solubility: 32° C., 48 h equilibration (Table 3); for Hanks' buffer solubility: pH 7.4, 32° C., 30 min sonication", "description": "The solubilities of CB-NTXOL-BUPOH, hydroxybupropion, and 6-β-naltrexol were determined by adding excess quantity of drug to mineral oil or pre-warmed HEPES-buffered Hanks' salt solution pH 7.4 at 32° C. (skin surface temperature), with equilibration while shaking in a water bath at 60 rpm. Weighing 4 mg of each of the drugs and placing them in 1 ml of each of the respective solvents was enough to ensure that there was excess drug in solution. Samples were drawn into a pre-warmed glass syringe, filtered through a syringe filter (Mineral oil: Millex FG-13, Millipore, Billerica, Mass., USA, and buffer: nylon filter, Gelman, East Hills, N.Y., USA), and measured with respect to volume and diluted with an appropriate volume of acetonitrile or buffer. The drug from the buffer samples was immediately extracted by solid phase extraction as described above. Drugs in mineral oil were diluted with a hundred-fold volume of acetonitrile and extraction recoveries were >95% for all the drugs. The sampling procedure was done in triplicate, discarding the first 40% of the initial filtrate. […]. For buffer solubilities, samples were taken after 30 min of sonication (to minimize the hydrolysis of the codrug). No significant difference was found between 30 min sonication solubility measurements and equilibrium solubility measurements taken after 48 h for 6-β-naltrexol."}, "[1]": {"assay": "Plasma hydrolysis of the carbonate codrug", "type": "in vitro ADME, guinea pig", "details": "for Guinea pig plasma half-life: guinea pig plasma in vitro at 37° C.", "description": "Guinea pig plasma, which was stored at −20° C., was thawed to room temperature. Known and sub-saturated amounts of the codrug (50 nmol) were added to approximately 2.0 ml of the guinea pig plasma and vortexed. Two-hundred μl aliquots of the spiked plasma were distributed into sealed vials, and incubated at 37° C. Samples were withdrawn at predetermined time intervals; 0, 0.5, 1, 2, 4, 6, 9, 24, 30, and 48 h. 500 μl of ACN was added to each sample to precipitate plasma protein. Each sample was vortexed and centrifuged at 10,000×g for 15 min. The supernatant was separated and evaporated under nitrogen at room temperature, and the residue was reconstituted with ACN for high-pressure liquid chromatography (HPLC) analysis. A standard curve was prepared from drug-spiked plasma samples processed by the same method. The amounts of the codrug remaining or parent drugs released were plotted against time. These hydrolytic profiles were fit to previously developed mathematical models using nonlinear least-squares regression analysis ([…]®, Micromath Inc., Salt Lake City, Utah) as described by the equations below: […]"}, "[2]": {"assay": "Permeation studies in guinea pigs in vivo (topical gel, plasma pharmacokinetics)", "set-up": "species or system hairless guinea pigs", "details": "for Enhancement factor (delivery of 6-β-naltrexol in vivo): codrug gel versus 6-β-naltrexol base gel, guinea pigs; for Tlag of 6-β-naltrexol: lag time to steady-state; for Tlag of 6-β-naltrexol / AUC0-48 of 6-β-naltrexol / Cmax of 6-β-naltrexol / Tmax of 6-β-naltrexol / Observed CSS of 6-β-naltrexol: topical gel; for Tlag of 6-β-naltrexol / Cmax of 6-β-naltrexol / Tmax of 6-β-naltrexol / Observed CSS of 6-β-naltrexol: hairless guinea pigs; for AUC0-48 of 6-β-naltrexol / Cmax of 6-β-naltrexol / Tmax of 6-β-naltrexol: plasma; for AUC0-48 of 6-β-naltrexol: 14.5 cm^2, hairless guinea pigs; for Observed CSS of 6-β-naltrexol: steady-state plasma concentration, 48 h; for intact codrug in guinea pig plasma after topical application: in vivo plasma samples", "description": "A hydroxyethyl cellulose-based gel was prepared for topical application. First, either CB-NTXOL-BUPOH or 6-β-naltrexol (˜25 mg each) was dissolved in 1 ml of PG:buffer, pH 7.4 (2:3, v/v) solution using a magnetic stirrer. Hydroxyethyl cellulose (2%, w/w) was dispersed into these mixtures, sonicated, vortexed, and allowed to form a gel at room temperature. The drug in each formulation was saturated, forming a suspension.\nMale and female Hairless IAF and Hartley guinea pigs (Charles River) weighing 345-482 g were used for topical studies (n=5 to 6 per treatment group). Prior to surgery, the animals were treated with glycopyrrolate and buprenorphine (to induce analgesia), and then ketamine (100 mg/kg, i.p.) and xylazine (8 mg/kg, i.m.) were used for anesthetic purposes. Catheters were surgically implanted into the jugular vein. A “blank” baseline plasma sample was drawn from each animal immediately before drug treatment. 500 μL of the gel containing the drug was applied onto the dorsal region of the guinea pig with a syringe and subsequently spread to cover an area of 7.25 cm^2. A rubber ring fitted with a drug-impermeable backing laminate (MEDIFLEX® 1502) was used to enclose the area of gel application. ARcare® acrylic adhesive was used to ensure that the ring maintained contact with the skin. Additionally, a bio-occlusive tape was placed over the patches to further secure the formulation on the guinea pigs. Drug formulations were applied on both sides of each guinea pig to give a total application area of 14.5 cm^2. Plasma samples were obtained at predetermined time intervals, which included 48 h while the formulations were on the animal, and for another 48 h after patches and formulations were removed. Blood samples were immediately centrifuged at 10,000×g for 3 min, and the plasma was separated. Plasma samples were stored at −70° C. until analysis by liquid chromatographic mass spectrometry, LC-MS.\nTopical administration data were analyzed by non-compartmental analysis to determine mean steady-state plasma concentration (CSS), lag time to steady-state (tlag), and area under the curve from 0 to 48 h, AUC0-48."}, "[3]": {"assay": "Differential scanning calorimetry", "type": "physicochemical", "details": "for Mean activity of solid @ T = 25° C., a2: calculated from melting point and heat of fusion; for Heat of fusion, ΔHf: ±s.d., n = 3"}, "[4]": {"details": "human skin, values obtained from Kiptoo et al., cited from earlier work; for In vitro flux: codrug as NTXOL equivalent flux"}}, "note": "Where “and” joins values, the source holds several entries; their conditions need not be identical. Equal entries are not always repeated.", "data": [{"smiles": "Oc1ccc2c3c1O[C@H]1[C@H](O)CC[C@@]4(O)[C@@H](C2)N(CC2CC2)CC[C@]314", "note": "[Compound 2, 6-β-naltrexol]", "values": [{"measurement": "Light mineral oil solubility", "setting": "physchem", "value": 30, "unit": "µM"}, {"measurement": "Hanks' buffer solubility", "setting": "physchem", "value": 300, "unit": "µM"}, {"measurement": "Guinea pig plasma half-life", "setting": "[1]", "value": "stable"}, {"measurement": "Enhancement factor (delivery of 6-β-naltrexol in vivo)", "setting": "[2]", "value": 1}, {"measurement": "Tlag of 6-β-naltrexol", "setting": "[2]", "value": "5.1 ± 0.7", "unit": "h"}, {"measurement": "AUC0-48 of 6-β-naltrexol", "setting": "[2]", "value": "66.4 ± 7.9", "unit": "ng·h/mL"}, {"measurement": "Cmax of 6-β-naltrexol", "setting": "[2]", "value": "1.5 ± 0.2", "unit": "ng/mL"}, {"measurement": "Tmax of 6-β-naltrexol", "setting": "[2]", "value": "28.1 ± 1.5", "unit": "h"}, {"measurement": "Observed CSS of 6-β-naltrexol", "setting": "[2]", "value": "1.25 ± 0.51 ng/mL and 1.2 ng/mL"}, {"measurement": "Observed CSS of 6-β-naltrexol", "setting": "[2]; listed as NTXOL", "value": "1.2 ± 0.5", "unit": "ng/mL"}, {"measurement": "Mean activity of solid @ T = 25° C., a2", "setting": "[3]", "value": 0.12}, {"measurement": "Heat of fusion, ΔHf", "setting": "[3]", "value": "3.597 ± 0.0478", "unit": "kcal/mol"}, {"measurement": "In vitro flux", "setting": "[4]", "value": "0.36 ± 0.15", "unit": "nmol cm^−2 h^−1"}, {"measurement": "In vitro lag time", "setting": "[4]", "value": "15.72 ± 1.76", "unit": "h"}]}, {"smiles": "Cc1c(-c2cccc(Cl)c2)oc(=O)n1C(C)(C)COC(=O)Oc1ccc2c3c1OC1C(O)CCC4(O)C(C2)N(CC2CC2)CCC314", "note": "(centres unmarked) [Compound 26]", "values": [{"measurement": "Light mineral oil solubility", "setting": "physchem", "value": 2880, "unit": "µM"}, {"measurement": "Hanks' buffer solubility", "setting": "physchem", "value": 530, "unit": "µM"}, {"measurement": "Guinea pig plasma half-life", "setting": "[1]; listed as CB-NTXOL-BUPOH", "value": 8.7, "unit": "h"}, {"measurement": "Guinea pig plasma half-life", "setting": "[1]; listed as codrug", "value": "approximately 8.7 h"}, {"measurement": "hydrolysis in guinea pig plasma compared to pH 7.4 phosphate buffer", "setting": "[1]; in vitro", "value": "almost three-fold faster hydrolysis"}, {"measurement": "Enhancement factor (delivery of 6-β-naltrexol in vivo)", "setting": "[2]", "value": "five-fold"}, {"measurement": "intact codrug in guinea pig plasma after topical application", "setting": "[2]; listed as CB-NTXOL-BUPOH", "value": "only trace amounts of intact codrug"}, {"measurement": "intact codrug in guinea pig plasma after topical application", "setting": "[2]; listed as codrug", "value": "Only trace amounts"}, {"measurement": "Tlag of 6-β-naltrexol", "setting": "[2]", "value": "5.0 ± 1.1", "unit": "h"}, {"measurement": "AUC0-48 of 6-β-naltrexol", "setting": "[2]", "value": "282.0 ± 14.5", "unit": "ng·h/mL"}, {"measurement": "Cmax of 6-β-naltrexol", "setting": "[2]", "value": "6.6 ± 0.4", "unit": "ng/mL"}, {"measurement": "Tmax of 6-β-naltrexol", "setting": "[2]", "value": "10.1 ± 0.9", "unit": "h"}, {"measurement": "Observed CSS of 6-β-naltrexol", "setting": "[2]; listed as CB-NTXOL-BUPOH", "value": "6.4 ng/mL and 6.4 ± 0.9 ng/mL"}, {"measurement": "Observed CSS of 6-β-naltrexol", "setting": "[2]; listed as codrug", "value": "6.40 ± 0.93", "unit": "ng/mL"}, {"measurement": "Mean activity of solid @ T = 25° C., a2", "setting": "[3]", "value": 0.20}, {"measurement": "Heat of fusion, ΔHf", "setting": "[3]", "value": "3.031 ± 0.019", "unit": "kcal/mol"}, {"measurement": "In vitro flux", "setting": "[4]", "value": "1.34 ± 0.35", "unit": "nmol cm^−2 h^−1"}, {"measurement": "In vitro lag time", "setting": "[4]", "value": "12.10 ± 0.77", "unit": "h"}]}]}
